According to US5830910A (priority 1995, dated 1998):
Entries after “also recorded” stand apart in the source; their conditions may differ.

Key:
Format in all cases: cell-based, rat
[1] = tested on: cultured hippocampal neurons; assay: cells
Excerpt: (§1) Dissociated embryonic rat hippocampal cell cultures were established and maintained. All procedures conformed with the NIH Guide for the Care and Use of Laboratory Animals and were approved by the University of Kentucky Animal Care and Use Committee. Cultures were maintained on a polyethyleneimine-coated substrate in plastic 35-mm dishes or 96 wall plates (for cell survival studies) or glass-bottom 35-mm dishes (for [Ca^2+ ]i imaging studies). The cell density was ^~ 70-100 cells/mm^2. Cells were maintained in Eagle's minimum essential medium supplemented 10% with fetal bovine serum and containing 20 mM sodium pyruvate. […] Aβ25-35 (Bachem, lot ZJ744) and Aβ1-40 (Bachem, lot ZK600) were stored in the lyophilized form, and stocks were prepared immediately before use by dissolving the peptide at a concentration of 1 mM in sterile distilled water. […] Glutamate and colchicine (Sigma) were prepared as 200-500x stocks in saline. Cytochalasins D and E (Sigma) and calcium ionophore 4-bromo-A23187 (Calbiochem) were prepared as 500x stocks in dimethyl sulfoxide. Vitamin E (α-tocopherol; Sigma) was prepared as a 500x stock in ethanol. Nordihydroguaiaretic acid and FeSo4 were prepared as 500x stocks in sterile water.
(§2) Neuronal survival was quantified by counting viable neurons in the same microscope fields (10x objective) immediately before experimental treatment and at time points after treatment. In addition, cells were grown in 96-well plates and Alamar blue fluorescence (Alamar Laboratories)was quantified by using a fluorescence plate reader. Alamar Blue is a non-fluorescent substrate that, after reduction by cell metabolites, becomes fluorescent. Usually neurons that died in the time intervals (20-48 h) between examination points were absent. Viability of the remaining neurons was assessed by morphological criteria. Neutrons with intact neurites of uniform diameter and a soma with a smooth, round appearance were considered viable, whereas neurons with fragmented neurites and a vacuolated or swollen soma were considered nonviable. Survival values were expressed as percentages of the initial number of neurons present before experimental treatment. Statistical comparisons were made using ANOVA and Scheffe post-hoc tests for pairwise comparisons.
FIG. 5. […] Cytochalasin D was added to cultures 30 min prior to exposure to glutamate, and control cultures were exposed to 0.2% dimethylsulfoxide.
(A) Neuronal survival was quantified in cultures that had been pretreated with the indicated concentrations of cytochalasin D and then exposed to 50 μM glutamate for 20 h. Values represent the means and SEM of determinations made in four separate cultures. […] Pairwise statistical comparisons of cytochalasin-treated cultures with the control survival (Scheffe's test) indicated 1 nM cytochalasin D, P<0.05; 10 nM cytochalasin D, P<0.001; 100 and 1000 nM cytochalasin D, P<0.0001.
(B) Neuronal survival was quantified in cultures that had been pretreated with either vehicle (control) or 100 nM cytochalasin D and then exposed to the indicated concentrations of glutamate for 20 h. Values represent the means and SEM of determinations made in four separate cultures. […] ANOVA with Scheffe's post hoc test.
FIG. 6. (A) Cultures were pretreated with 100 nM cytochalasin D (CyD), 100 nM cytochalasin E (CyE), or 100 nM colchicine (Colch). Cultures were then exposed to 50 μM glutamate for 20 h. Values for neuronal survival represent the means and SEM of determinations made in four separate cultures. *P<0.001 compared to control value. **P<0.001 compared to value for cultures exposed to glutamate alone.
[…] Values represent the means and SEM of determinations made in four separate cultures. *P<0.01 compared to value for cultures exposed to 20 μM glutamate alone. **P<0.05 compared to cultures exposed to 50 μM glutamate alone.

[2] = tested on: cultured hippocampal neurons; conditions: 100 nM, added 1 h before 50 μM Aβ; 48 h
Excerpt: as §1, §2
FIG. 12. (A) Cultures were pretreated for 1 h with vehicle 0.2% dimethyl sulfoxide (Control) or 100 nM cytochalasin D (CyD) and were exposed to the indicated concentrations of Aβ25-35 for 48 h. Data are mean and SEM values of determinations made in four separate cultures.
(B) Cultures were pretreated for 1 h with the indicated concentrations of cytochalasin D and then exposed to 50 μM Aβ25-35; parallel cultures were exposed to cytochalasin D alone (Control) . Data are mean and SEM values of determinations made in four separate cultures.
FIG. 14. Cultures were exposed to 100 nM colchicine; 50 μM Aβ; 100 nM colchicine plus 50 μM Aβ; 100 nM cytochalasin E (CyE) plus Aβ (colchicine and cytochalasin E were added 1 h before Aβ); neuronal survival was assessed 48 h later. Data are mean and SEM values of determinations made in four separate cultures. *p<0.01, compared with values for control or colchicine alone. **p<0.01, compared with value for cultures exposed to Aβ alone.

[3] = tested on: actin filaments in cultured hippocampal neurons; assay: phalloidin fluorescence of actin filaments, neurons
Experimental: Hippocampal cells were exposed to cytochalasin D and then fixed for 30 min in 4% paraformaldehyde/phosphate-buffered saline. Cell membranes were permeabilized by incubating for 5 min in a solution of 0.2% Triton X-100 in phosphate-buffered saline. Cells were then incubated for 30 min in PBS containing 0.005 U/ml fluorescein-phalloidin (Molecular Probes). Cells were rinsed in water and mounted in Vectashield antifade solution (Vector Laboratories) . Fluorescence images were acquired using a Sarastro 2000 confocal laser scanning microscope with a 60x oil-immersion objective. All images were acquired using identical settings for excitation intensity and detector gain.
FIG. 4. (A) Micrographs are confocal laser scanning microscope images of cultured hippocampal cells stained with fluorescein-labeled phalloidin. Cells were exposed for 3 h to either vehicle (control; left) or 100 nM cytochalasin D (right) prior to staining with phalloidin. The top micrographs show several neurons (arrowheads point to neuronal cell bodies); note reduction in phalloidin fluorescence in cytochalasin-treatedneurons.
(B) Cytochalasin D and glutamate cause a reduction in neuronal phalloidin fluorescence. […] Values represent the mean fluorescence intensity per neuronal cell body (±SEM; n=15-18). […]

[4] = tested on: cultured hippocampal neurons; assay: neurotoxicity of combined exposure to Aβ and glutamate; conditions: 100 nM; 50 μM Aβ plus 20 μM glutamate, 48 h
Excerpt: Dissociated embryonic rat hippocampal cell cultures were established and maintained. All procedures conformed with the NIH Guide for the Care and Use of Laboratory Animals and were approved by the University of Kentucky Animal Care and Use Committee. Cultures were maintained on a polyethyleneimine-coated substrate in plastic 35-mm dishes or 96 wall plates (for cell survival studies) or glass-bottom 35-mm dishes (for [Ca^2+ ]i imaging studies). The cell density was ^~ 70-100 cells/mm^2. Cells were maintained in Eagle's minimum essential medium supplemented 10% with fetal bovine serum and containing 20 mM sodium pyruvate. […]
Neuronal survival was quantified by counting viable neurons in the same microscope fields (10x objective) immediately before experimental treatment and at time points after treatment. In addition, cells were grown in 96-well plates and Alamar blue fluorescence (Alamar Laboratories)was quantified by using a fluorescence plate reader. […] Viability of the remaining neurons was assessed by morphological criteria. […] Survival values were expressed as percentages of the initial number of neurons present before experimental treatment. […]
FIG. 13. […] Neuronal survival was assessed 48 h after treatment. […]

COc1cc2c(c(OC)c1OC)-c1ccc(OC)c(=O)cc1[C@@H](NC(C)=O)CC2 [Colchicine, colchicine, reference compound]
protection against glutamate toxicity ([1]; 100 nM, 50 μM glutamate, 20 h): did not protect neurons against glutamate toxicity | effect on Aβ neurotoxicity [2]: did not protect neurons against Aβ toxicity

C=C1[C@@H](C)[C@H]2[C@H](Cc3ccccc3)NC(=O)[C@]23[C@H](OC(C)=O)/C=C/[C@@](C)(O)C(=O)[C@@H](C)C/C=C/[C@H]3[C@@H]1O [Cytochalasin D, cytochalasin D]
neuronal survival upon exposure to glutamate ([1]; 100 nM pretreatment, 10 μM (P<0.05), 50 μM (P<0.001), 100 μM (P<0.02) glutamate, 20 h): significantly greater | neurons killed upon exposure to glutamate ([1]; 100 nM pretreatment, 50 μM glutamate, 20 h): < 10% | effect on neuronal survival, alone ([1]; 10-100 nM alone, 20-h exposure): no significant effect on neuronal survival | phalloidin staining in neurons ([3]; 100 nM, 1 h): pronounced reduction in phalloidin staining in neurons; also recorded: loss of fluorescence | phalloidin staining in neurons ([3]; 10-1000 nM, 3 h): concentration-dependent reduction in phalloidin staining in neurons | effect on neurotoxicity of combined Aβ and glutamate [4]: attenuated significantly
